The values that follow come from patent US12377152B2, “Compounds for degrading alpha-synuclein aggregates and uses thereof” (APRINOIA THERAPEUTICS LIMITED, priority 2019, dated 2025).

Molecules are shown by their SMILES.

This assay has as its target α-synuclein aggregates (Homo sapiens (Human), UniProt P37840). Put plainly: ReNcell VM α-synuclein aggregation assay. In kind it is cell-based. Particulars: for DC50: ReNcell VM cells, read-out: Activity (DC50, concentration at which 50% of α-synuclein aggregates has been degraded). As to the method:
The ReNcell VM α-synuclein aggregation assay was conducted at Charles River Laboratories (CRL). ReNcell VM is an immortalized human neural progenitor cell line derived from the ventral mesencephalon region of the brain. ReNcell VM cells were selected as in vitro cellular model for the α-synuclein aggregation assay, based on their growth features, differentiation potential into terminally differentiated neurons and amenability to adenoviral transduction. Aggregated human wild type α-synuclein was overexpressed through adenoviral delivery. Aggregated α-synuclein was detected with the aggregate-selective anti-α-synuclein antibody MJFR14 using immunocytochemistry; total α-synuclein levels were detected with Syn205 (α/β-synuclein-specific antibody).
The ReNcell VM α-synuclein aggregation assay was applied for compound screening to identify compounds capable of degrading α-synuclein aggregates. […] Immunoreactivity toward aggregated (MJFR14) and total α-synuclein (Syn205) was quantified using high content-based segmentation of immunoactive areas in immunocytochemical images (performed with the IN Cell 2200 (GE Healthcare)), followed by quantification of immunofluorescent intensity (performed by CRL's developed algorithm using IN Cell Developer Toolbox software).
Percentage effect (PE): Inhibition in comparison to BLANK (0.1% DMSO).
PE=100−(signal of compound/average signal BLANK)×100
Compound-induced cytotoxicity (% remaining cells)
% remaining cells=(nuclei count of compound/average nuclei count of BLANK)×100

For `Cc1ncsc1-c1ccc(CNC(=O)[C@@H]2C[C@@H](O)CN2C(=O)[C@@H](NC(=O)COCCOCCOCCOCCOCCNc2ccc3nc(-c4ccc(-c5ccc(N(C)C)nc5)cc4)sc3c2)C(C)(C)C)cc1` (racemic) [Compound 161247, rac-(2R,4S)—N-[[4-(4-methyl-1,3-thiazol-5-yl)phenyl]methyl]-4-hydroxy-1-[rac-(2R)-2-[2-[2-[2-[2-[2-[2-[[2-[4-[6-(dimethylamino)pyridin-3-yl]phenyl]-1,3-benzothiazol-6-yl]-amino]ethoxy]ethoxy]ethoxy]ethoxy]ethoxy]ethanoylamino]-3,3-dimethyl-butanoyl]pyrrolidine-2-carboxamide], the DC50 is above 10 µM.
Take `Cc1ncsc1-c1ccc(CNC(=O)[C@@H]2C[C@@H](O)CN2C(=O)[C@@H](NC(=O)COCCOCCOCCOCCOCCNc2ccc(-c3ccc(-c4nc5ccc(N(C)C)cc5s4)cc3)cn2)C(C)(C)C)cc1` (racemic) [Compound 161598, rac-(2R,4S)—N-[[4-(4-methyl-1,3-thiazol-5-yl)phenyl]methyl]-4-oxidanyl-1-[rac-(2R)-2-[2-[2-[2-[2-[2-[2-[[5-[4-[6-(dimethylamino)-1,3-benzothiazol-2-yl]phenyl]pyridin-2-yl]amino]ethoxy]ethoxy]ethoxy]ethoxy]ethoxy]ethanoylamino]-3,3-dimethyl-butanoyl]pyrrolidine-2-carboxamide]: the DC50 was above 10 µM.
Consider `CN(C)c1ccc(-c2ccc(-c3nc4ccc(NCCCOCCCOc5ccc6c(c5)CN(C5CCC(=O)NC5=O)C6=O)cc4s3)c(C(F)(F)F)c2)cn1` (stereo not drawn) [Compound 123374], for which the DC50 is above 10 µM.
Regarding `COc1cc(-c2ccc(N(C)C)nc2)ccc1-c1nc2ccc(NCCOCCOc3ccc4c(c3)CN(C3CCC(=O)NC3=O)C4=O)cc2s1` (stereo not drawn) [Compound 129071], the DC50 is above 10 µM.
For `COc1ccc2nc(-c3ccc(-c4ccnc(NCCOCCOc5ccc6c(c5)C(=O)N(C5CCC(=O)NC5=O)C6=O)c4)cc3)cn2c1` (stereo not drawn) [Compound 129975], the DC50 is above 10 µM.
In the case of `COc1ccc2nc(-c3ccc(-c4ccnc(NC(=O)CCCCOc5ccc6c(c5)CN(C5CCC(=O)NC5=O)C6=O)c4)cc3)cn2c1` (stereo not drawn) [Compound 130177], the DC50 is above 10 µM.
On the same count and under the same terms, next, `CN(C)c1ccc(-c2ccc(-c3nc4ccc(NC(=O)CCOCCOc5ccc6c(c5)CN(C5CCC(=O)NC5=O)C6=O)cc4s3)c(C(F)(F)F)c2)cn1` (stereo not drawn) [Compound 132560]: above 10 µM; `CN1C(=O)CCC(N2Cc3cc(OCCOCCNc4ccc5nc(-c6ccc(-c7ccc(N(C)C)nc7)cc6C(F)(F)F)sc5c4)ccc3C2=O)C1=O` (stereo not drawn) [Compound 133065]: above 10 µM.
Consider `O=C1CCC(N2Cc3cc(OCCCC(=O)Nc4cc(-c5ccc(-c6nc7ccc(F)cc7s6)cc5)ccn4)ccc3C2=O)C(=O)N1` (stereo not drawn) [Compound 133678], for which the DC50 is above 10 µM.
For the compound `O=C1CCC(N2Cc3cc(OCCOCCNc4cc(-c5ccc(-c6cn7ccccc7n6)cc5)ccn4)ccc3C2=O)C(=O)N1` (stereo not drawn) [Compound 137955], the DC50 is above 10 µM.
Take `CN(C)c1ccc(-c2ccc(-c3nc4ccc(NC(=O)CCOCCOCCOc5ccc6c(c5)CN(C5CCC(=O)NC5=O)C6=O)cc4s3)c(C(F)(F)F)c2)cn1` (stereo not drawn) [Compound 138266]: the DC50 was above 10 µM.
With `COc1ccc2nc(-c3ccc(-c4ccnc(NC(=O)CCCOc5ccc6c(c5)CN(C5CCC(=O)NC5=O)C6=O)c4)cc3)sc2c1` (stereo not drawn) [Compound 138876], the DC50 lay in the range of 0.9 to 10 µM.
Same read-out and setting: next, `CN(C)c1ccc(-c2ccc(-c3nc4ccc(NCCOCCOCCOCCOCCOCCOc5ccc6c(c5)C(=O)N(C5CCC(=O)NC5=O)C6=O)cc4s3)cc2)cn1` (stereo not drawn) [Compound 159985, 2-[2,6-bis(oxo)piperidin-3-yl]-5-[2-[2-[2-[2-[2-[2-[[2-[4-[6-(dimethylamino)-pyridin-3-yl]phenyl]-1,3-benzothiazol-6-yl]amino]ethoxy]ethoxy]ethoxy]ethoxy]ethoxy]-ethoxy]isoindole-1,3-dione]: above 10 µM; `CN(C)c1ccc(-c2ccc(-c3nc4ccc(NCCOCCOc5ccc6c(c5)C(=O)N(C5CCC(=O)NC5=O)C6=O)cc4s3)cc2)cn1` (stereo not drawn) [Compound 160219, 2-[2,6-bis(oxo)piperidin-3-yl]-5-[2-[2-[[2-[4-[6-(dimethylamino)pyridin-3-yl]phenyl]-1,3-benzothiazol-6-yl]amino]ethoxy]ethoxy]isoindole-1,3-dione]: above 10 µM; `CN(C)c1ccc(-c2ccc(-c3nc4ccc(NCCOCCOCCOCCOCCOCCOc5ccc6c(c5)CN(C5CCC(=O)NC5=O)C6=O)cc4s3)cc2)cn1` (stereo not drawn) [Compound 160273, 3-[6-[2-[2-[2-[2-[2-[2-[[2-[4-[6-(dimethylamino)pyridin-3-yl]phenyl]-1,3-benzothiazol-6-yl]amino]ethoxy]-ethoxy]ethoxy]ethoxy]ethoxy]ethoxy]-3-oxo-1H-isoindol-2-yl]piperidine-2,6-dione]: 0.01 to 0.9 µM.
As to `CN(C)c1ccc(-c2ccc(-c3nc4ccc(NCCOCCOc5ccc6c(c5)CN(C5CCC(=O)NC5=O)C6=O)cc4s3)cc2)cn1` (stereo not drawn) [Compound 160313, 3-[6-[2-[2-[[2-[4-[6-(dimethylamino)pyridin-3-yl]phenyl]-1,3-benzothiazol-6-yl]amino]ethoxy]ethoxy]-3-oxo-1H-isoindol-2-yl]piperidine-2,6-dione], the DC50 was above 10 µM.
On to `CN(C)c1ccc2nc(-c3ccc(-c4ccc(NCCOCCN5C(=O)CCC(N6Cc7cc(O)ccc7C6=O)C5=O)nc4)cc3)sc2c1` (stereo not drawn) [Compound 160624, 1-(2-(2-((5-(4-(6-(dimethylamino)benzo[d]thiazol-2-yl)phenyl)pyridin-2-yl)amino)ethoxy)ethyl)-3-(5-hydroxy-1-oxoisoindolin-2-yl)piperidine-2,6-dione], for which the DC50 was above 10 µM.
With `CN(C)c1ccc(-c2ccc(-c3nc4ccc(NCCCCCOc5ccc6c(c5)C(=O)N(C5CCC(=O)NC5=O)C6=O)cc4s3)cc2)cn1` (stereo not drawn) [Compound 161103, 2-[2,6-bis(oxo)piperidin-3-yl]-5-[5-[[2-[4-[6-(dimethylamino)-pyridin-3-yl]phenyl]-1,3-benzothiazol-6-yl]amino]pentoxy]isoindole-1,3-dione], the DC50 is above 10 µM.
Take `CN(C)c1ccc(-c2ccc(-c3cn4cc(OCCOCCOc5ccc6c(c5)C(=O)N(C5CCC(=O)NC5=O)C6=O)ccc4n3)cc2)c(F)n1` (stereo not drawn) [Compound 161111, 2-[2,6-bis(oxo)piperidin-3-yl]-5-[2-[2-[2-[4-[6-(dimethylamino)-2-fluoro-pyridin-3-yl]phenyl]imidazo[1,2-a]pyridin-6-yl]oxyethoxy]ethoxy]isoindole-1,3-dione]: the DC50 was above 10 µM.
With `CN(C)c1ccc2nc(-c3ccc(-c4ccc(NCCOCCOc5ccc6c(c5)C(=O)N(C5CCC(=O)NC5=O)C6=O)nc4)cc3)sc2c1` (stereo not drawn) [Compound 161177, 2-[2,6-bis(oxo)piperidin-3-yl]-5-[2-[2-[[5-[4-[6-(dimethylamino)-1,3-benzothiazol-2-yl]phenyl]pyridin-2-yl]amino]ethoxy]ethoxy]isoindole-1,3-dione], the DC50 is above 10 µM.
As to `COc1ccc2nc(-c3ccc(-c4ccnc(NCCOCCOc5ccc6c(c5)CN(C5CCC(=O)NC5=O)C6=O)c4)cc3)cn2c1` (stereo not drawn) [Compound 162640, 3-[6-[2-[2-[[4-[4-(6-methoxyimidazo[1,2-a]pyridin-2-yl)phenyl]pyridin-2-yl]amino]ethoxy]ethoxy]-3-oxidanylidene-1H-isoindol-2-yl]piperidine-2,6-dione], the DC50 lay within 0.01 to 0.9 µM. Further, the “inhibition of MJFR14 immunoreactivity” value (24 hour treatment, differentiated ReNcell VM cells) is listed as “concentration-dependent inhibition”.
In the case of `CN(C)c1ccc(-c2ccc(-c3nc4ccc(NCCOCCN5C(=O)CCC(N6Cc7c(N)cccc7C6=O)C5=O)cc4s3)cc2)cn1` (stereo not drawn) [Compound 162641, 3-(7-azanyl-3-oxidanylidene-1H-isoindol-2-yl)-1-[2-[2-[[2-[4-[6-(dimethylamino)pyridin-3-yl]phenyl]-1,3-benzothiazol-6-yl]amino]ethoxy]ethyl]piperidine-2,6-dione], the DC50 is above 10 µM.
Take `CN(C)c1ccc(-c2ccc(-c3nc4ccc(OCCOCCOc5ccc6c(c5)CN(C5CCC(=O)NC5=O)C6=O)cc4o3)cc2)cn1` (stereo not drawn) [Compound 163365]: the DC50 is 0.01 to 0.9 µM.
In the case of `Cc1ncsc1-c1ccc(CNC(=O)[C@@H]2C[C@@H](O)CN2C(=O)[C@@H](NC(=O)COCCOCCOc2ccc3nc(-c4ccc(-c5ccc(N(C)C)nc5)cc4C(F)(F)F)sc3c2)C(C)(C)C)cc1` [Compound 165554], the DC50 is above 10 µM.
On to `Cc1ncsc1-c1ccc(CNC(=O)[C@@H]2C[C@@H](O)CN2C(=O)C(NC(=O)COCCOCCNc2cc(-c3ccc(-c4nc5ccc(F)cc5s4)cc3)ccn2)C(C)(C)C)cc1` (stereo partly drawn) [Compound 165810], for which the DC50 was above 10 µM.
As to `O=C1CCC(N2Cc3cc(OCCOCCNc4cc(-c5ccc(-c6cn7cc(F)ccc7n6)cc5)ccn4)ccc3C2=O)C(=O)N1` (stereo not drawn) [Compound 165824], the DC50 is above 10 µM.
The same measure, in the same setting: next, `CN(C)c1ccc2nc(-c3ccc(-c4ccnc(NCCOCCOc5ccc6c(c5)CN(C5CCC(=O)NC5=O)C6=O)c4)cc3)sc2c1` (stereo not drawn) [Compound 165950]: above 10 µM; `O=C1CCC(N2C(=O)c3ccc(OCCOCCNc4cc(-c5ccc(-c6nc7ccc(F)cc7s6)cc5)ccn4)cc3C2=O)C(=O)N1` (stereo not drawn) [Compound 165952]: above 10 µM.
In the case of `O=C1CCC(N2Cc3cc(OCCOCCNc4ccc(-c5ccc(-c6cc7ccncc7[nH]6)cc5)cn4)ccc3C2=O)C(=O)N1` (stereo not drawn) [Compound 165954], the DC50 was above 10 µM.
